Laboratory results as given in US8071540B2, “Virus derived antimicrobial peptides” (priority 2007, dated 2011).
Entries after “also recorded” stand apart in the source; their conditions may differ. Where no end group is shown, it is not given here.

Assays:
Pseudomonas aeruginosa = test: Bacterial lysis (broth dilution) assay, MBC; format: cell-based; design: MBC, Psuedomonas aeruginosa, 0 mM NaCl / MBC, Psuedomonas aeruginosa, 150 mM NaCl: unit not given here; settings: 99.9% killing; for MBC, Psuedomonas aeruginosa, 0 mM NaCl: 0 mM NaCl (10 mM phosphate buffer); for MBC, Psuedomonas aeruginosa, 150 mM NaCl: 150 mM NaCl (physiologic)
Staphylococcus aureus = test: Bacterial lysis (broth dilution) assay, MBC; format: cell-based; settings: 99.9% killing; for MBC, Staphylococcus aureus, 0 mM NaCl: 0 mM NaCl (10 mM phosphate buffer); for MBC, Staphylococcus aureus, 150 mM NaCl: 150 mM NaCl (physiologic)
From the text: The assays for growth inhibition of a microbial target can be used to derive a minimum bactericidal concentration (MBC) value for the peptide, i.e., the concentration of peptide required to kill 99.9% (3-log decrease) of the microbial sample being tested. This value is well known to those in the art as representative of the effectiveness of a particular antimicrobial agent (e.g., an antibiotic) against a particular organism or group of organisms. In assays to detect the MBC of a peptide, growth inhibition of a bacterial population also can be measured with reference to the number of colony forming units (cfu) after exposure to a peptide relative to a control experiment without a peptide.
Bacterial lysis assay. Bacterial lysis assays were conducted in a manner similar to that described previously (Lehrer, R. I., M. E. Selsted, D. Szklarek, and F. J. 1983. Infect. Immun. 42: 10-4, 1983; Miller, M. A., R. F. Garry, J. M. Jaynes, and R. C. Montelaro, AIDS Res Hum Retroviruses 7:511-519, 1991). Bacterial suspensions were cultured in Luria-Bertani Broth to mid-log growth phase and washed by two cycles of centrifugation and suspension in 10 mM phosphate buffer. The Abs600 of the suspension was adjusted with 10 mM phosphate buffer such that, upon dilution, 5-10×10^5 cfu/mL would be treated in the assay. Bacteria were incubated for 1 h with two-fold dilutions of peptides (100 μM to 100 nM) in 96-well plates using 10 mM phosphate buffer, pH 7.2, as a diluent. Ten-fold dilutions of bacteria were performed to 1:1 000; a 100 μl aliquot from each condition was spread on the surface of tryptic soy agar plates (Difco, Detroit, Mich.) which were incubated overnight. Colonies of surviving bacteria (cfu, colony-forming units) were counted and compared to untreated controls to determine the amount of peptide-induced killing under each condition. Log killing is defined as the log of the ratio of cfu present before and after treatment with peptide. The minimal bactericidal concentration, MBC, is the peptide concentration at which 99.9% (three log) killing is achieved (Pearson et al., Antimicrob. Agents Chemother. 18: 699-708, 1980).
Results. Representative gram positive (S. aureus) and gram negative (P. aeruginosa) clinical isolates were used as the index bacteria to survey the peptides described herein.
A limitation of many host-derived antimicrobial peptides is their decreased activity at physiologic (150 mM) NaCl concentration. See Friedrich et al., Antimicrobial Agents and Chemotherapy 43:1542-1548. The peptides WLSA-5 (SEQ ID NO: 3) and LL37 were tested against the two index strains at physiologic NaCl. […] The activity of antimicrobial peptides described herein were compared to an expanded list of clinical bacterial isolates. These are summarized in Table 2 by comparing their MBCs in phosphate buffer alone (low salt) and phosphate buffer containing 150 mM NaCl (physiologic conditions). Inspection of this table would lead one skilled in the art to conclude that the activity of antimicrobial peptides described herein compare favorably to the host derived antimicrobial peptides as it relates to the spectrum and potency of antimicrobial activity.

[1] = system: Methicillin Resistant S. aureus; format: cell-based, Staphylococcus aureus; design: unit not given here; settings: 99.9% killing; for MBC, Methicillin Resistant S. aureus, 0 mM NaCl: 0 mM NaCl (10 mM phosphate buffer)
[2] = system: HIV-1 (strain IIIB) virions; test: Suppression of HIV-1 infectivity, p24 antigen in PHA stimulated PBMCs; format: cell-based; settings: 1 and 0.1 μM
Method: In this example human peripheral blood […] (PBMCs) were obtained from healthy volunteers and maintained in culture at a concentration of 1×10^5 viable cells per mL of medium. These cells were stimulated by the addition of phytohemagglutinin (PHA). To this a standardized titer of purified HIV-1 (strain IIIB) virions was added to PBMCs to generate a p24 antigen signal of 14,000 pg/mL five days post exposure to virus.
In order to test whether the LLP peptide, LSA-5 (SEQ ID NO: 2) was able to suppress HIV-1 activity, LSA-5 at concentrations ranging between 0.1 and 100 μM were incubated with the standard virus titer determined as above for 30 min. Virions surviving peptide exposure were isolated by ultracentrifugation at 100,000×g for 60 min. Viral pellets were used to infect PHA stimulated PBMCs prepared as described above. Five days post infection the level of p24 antigen was determined and compared to a non-peptide treated control. The data was expressed as the ratio of p24 antigen associated with peptide-treated vs. non-peptide treated HIV-1 infected cells to obtain a value referred to as percent suppression.

S. aureus [3] = test: Rabbit joint model of septic arthritis
S. epidermidis = test: In vitro activity against S. epidermidis
S. aureus [4] = test: Bactericidal activity in human synovial fluid
P. aeruginosa [5] = test: LSA-5 bound to Affigel 15 column, viable bacteria in eluant; settings: same column repeatedly exposed to bacterial suspensions
Indonesia H5N1 [6] = format: cell-based, influenza virus; settings: eleven two-fold serial dilutions from 50 μM, FIG. 24
Indonesia H5N1 [7] = format: in vivo, mice; settings: peptide added to virus just prior to intranasal dose, FIG. 25
[8] = system: vaccine strain of B. anthracis; format: cell-based, Bacillus anthracis; settings: FIG. 26
P. aeruginosa [9] = settings: intravenous administration; cited from earlier work
[10] = system: P. aeruginosa and primary human skin fibroblasts; settings: co-culture; cited from earlier work
C. albicans = test: In vitro fungal killing assay; settings: 6 μM, RPMI 1640, 37° C.; reference strain SC5314 and all clinical isolates
C. lusitaniae = test: In vitro fungal killing assay; settings: 6 μM, RPMI 1640, 37° C.; all isolates
[11] = system: Cryptococcocus neoformans; test: In vitro fungal killing assay; settings: 3 isolates
Aspergillus fumigatus = test: In vitro fungal killing assay; settings: 2 isolates

Sequence: RVIRVVQRACRAIRHIVRRIRQGLRRILRVV [LSA-5, RVIRVVQRACRAIRHIVRRIRQGLRRILRVV]
- MBC, Psuedomonas aeruginosa, 0 mM NaCl (Pseudomonas aeruginosa): 800
- MBC, Psuedomonas aeruginosa, 150 mM NaCl (Pseudomonas aeruginosa): 800
- MBC, Staphylococcus aureus, 0 mM NaCl (Staphylococcus aureus): 1000 nM
- MBC, Staphylococcus aureus, 150 mM NaCl (Staphylococcus aureus): 1000 nM
- MBC, Methicillin Resistant S. aureus, 0 mM NaCl [1]: 150
- reduction of HIV-1 infectivity [2]: drop off this inhibitory activity
- bacteria (colony forming units) in joint fluid (S. aureus [3]; 50, 100 and 200 μM intraarticularly, 1 h after instillation, versus non-peptide treated joint, FIG. 11): dose-dependent decrease in colony forming units; also recorded: significantly increases bacterial killing
- bacterial load in joint, comparison with 0.35% neomycin (S. aureus [3]; intraarticular at 0, 1 and 2 h, FIG. 12): nearly as effective as a standard concentration of neomycin
- adverse toxicity in animal experiments (S. aureus [3]; peptide administered alone, intraarticular): no adverse toxicity was observed
- bacterial load in joint (S. aureus [3]; two treatments of 150 μM at 0 and 1 h, 1 h post-treatment, versus phosphate buffer): significant decrease
- activity against S. epidermidis in vitro (S. epidermidis): highly active
- concentration at which peptide is still active in synovial fluid (S. aureus [4]; 1:4 dilution of human synovial fluid, FIG. 10): 128 µM
- effect of synovial fluid on activity (S. aureus [4]; versus phosphate buffer containing physiologic NaCl): clearly impairs the activity
- passages of bacterial suspension over which the column maintained activity (P. aeruginosa [5]): up to 6 passages

Sequence: RRWVRRVRRVWRRVVRVVRRWVRR [WLBU-2, RRWVRRVRRVWRRVVRVVRRWVRR]
- MBC, Psuedomonas aeruginosa, 0 mM NaCl (Pseudomonas aeruginosa): 200
- MBC, Psuedomonas aeruginosa, 150 mM NaCl (Pseudomonas aeruginosa): 100
- MBC, Staphylococcus aureus, 0 mM NaCl (Staphylococcus aureus): 1000 nM
- MBC, Staphylococcus aureus, 150 mM NaCl (Staphylococcus aureus): 600 nM
- MBC, Methicillin Resistant S. aureus, 0 mM NaCl [1]: 200
- MBC, Methicillin Resistant S. aureus, 150 mM NaCl ([1]; 150 mM NaCl (physiologic)): 100
- infectious virus plaque formation (Indonesia H5N1 [6]): dose-dependent decrease in infectious virus plaque formation
- infectivity of virus in mice (Indonesia H5N1 [7]): inactivate the infectivity of virus
- inhibition of vegetative form [8]: inhibit the vegetative form of B. anthracis
- concentration that completely killed 75% of the isolates, C. krusei (C. krusei; RPMI 1640, 37° C.): 3 µM
- concentration that completely killed the remaining isolates, C. krusei (C. krusei; RPMI 1640, 37° C.): 25 µM
- minimum fungicidal concentration (MFC, >99.9% kill), C. krusei (C. krusei; remaining isolates): ≤ 6 µM
- concentration that completely killed 75% of the isolates, C. tropicalis (C. tropicalis; RPMI 1640, 37° C.): 3 µM
- concentration that completely killed the remaining isolates, C. tropicalis (C. tropicalis; RPMI 1640, 37° C.): 25 µM
- minimum fungicidal concentration (MFC, >99.9% kill), C. tropicalis (C. tropicalis; remaining isolates): ≤ 6 µM
- protection in murine model (P. aeruginosa [9]): protection against a lethal challenge of P. aeruginosa
- antibacterial selectivity [10]: highest antibacterial selectivity of all peptides evaluated
- time to fully fungicidal effect, C. albicans (C. albicans): ≤ 5 min
- time to fully fungicidal effect, C. lusitaniae (C. lusitaniae): ≤ 5 min
- concentration that completely killed C. neoformans [11]: 3 µM
- concentration to which A. fumigatus isolates were resistant (Aspergillus fumigatus): > 100 µM
